Results reported in ChEMBL document CHEMBL5230081, “Battle against Vancomycin-Resistant Bacteria: Recent Developments in Chemical Strategies” (J Med Chem, 2019).
≈ marks a conversion by molar mass, not a printed value.

Legend:
Assay type in all cases: functional
Enterococcus faecium [1] = assay: Antibacterial activity against Enterococcus faecium SR7917 (VRE)
Enterococcus faecalis [2] = assay: Antimicrobial activity against Vancomycin - resistant Enterococcus faecalis SR7914 assessed as inhibition of bacterial growth
Staphylococcus aureus = assay: Antibacterial activity against Staphylococcus aureus assessed as biofilm formation
Escherichia coli [3] = assay: Synergistic antibacterial activity against Escherichia coli in presence of nitrofurantoin
Pseudomonas aeruginosa [4] = assay: Synergistic antibacterial activity against multidrug-resistant Pseudomonas aeruginosa ATCC 27853 assessed as reduction in bacterial viability after 12 hrs in presence of 1/2 MIC of vancomycin
Escherichia coli [5] = assay: Synergistic antibacterial activity against multidrug-resistant Escherichia coli assessed as reduction in bacterial viability after 12 hrs in presence of 1/2 MIC of trimethoprim
Escherichia coli [6] = assay: Synergistic antibacterial activity against Escherichia coli in presence of Trimethoprim
Enterococcus faecalis [7] = assay: Antimicrobial activity against Vancomycin - resistant Enterococcus faecalis assessed as inhibition of bacterial growth
Escherichia coli [8] = assay: Synergistic antibacterial activity against multidrug-resistant Escherichia coli assessed as reduction in bacterial viability after 12 hrs in presence of 1/2 MIC of nitrofurantoin
Pseudomonas aeruginosa [9] = assay: Antibacterial activity against Pseudomonas aeruginosa ATCC 27853 assessed as bacterial growth inhibition measured after 24 hrs by microbroth dilution method
Enterococcus faecalis [10] = assay: Antibiofilm activity against Enterococcus faecalis ATCC 47077 biofilms assessed as biofilm eradication
Pseudomonas aeruginosa [11] = assay: Antibacterial activity against multi drug resistant Pseudomonas aeruginosa assessed as reduction in microbial growth after 16 to 18 hrs by microbroth dilution method; conditions: time 16-18 hrs
Enterococcus faecium [12] = assay: Antibacterial activity against Vancomycin-resistant Enterococcus faecium assessed as reduction in bacterial growth measured after 48 hrs by microbroth dilution method
Pseudomonas aeruginosa [13] = assay: Antibacterial activity against colistin-resistant Pseudomonas aeruginosa PA101243 assessed as reduction in bacterial growth after 18 hrs by microbroth dilution method
Escherichia coli [14] = assay: Antibacterial activity against Escherichia coli assessed as bacterial growth inhibition measured after 48 hrs in presence of vancomycin
Enterococcus faecium [15] = assay: Antimicrobial activity against Vancomycin-resistant Enterococcus faecium ATCC 51559 assessed as inhibition in microbial growth measured after 48 hrs by microbroth dilution method
Pseudomonas aeruginosa [16] = assay: Antibacterial activity against Pseudomonas aeruginosa R590 assessed as reduction in bacterial growth by broth microdilution method
Enterobacter cloacae = assay: Antibacterial activity against Enterobacter cloacae NDM-1 assessed as reduction in bacterial growth by broth microdilution method
Acinetobacter baumannii [17] = assay: Antimicrobial activity against Acinetobacter baumannii assessed as microbial growth inhibition
Pseudomonas aeruginosa [18] = assay: Antibacterial activity against Pseudomonas aeruginosa R590 assessed as reduction in bacterial growth in presence of vancomycin by broth microdilution method
Acinetobacter baumannii [19] = assay: Antibacterial activity against Acinetobacter baumannii R4942 assessed as reduction in bacterial growth in presence of telavancin by broth microdilution method
Acinetobacter baumannii [20] = assay: Antibacterial activity against Acinetobacter baumannii R4942 assessed as reduction in bacterial growth by broth microdilution method
Escherichia coli [21] = assay: Antimicrobial activity against Escherichia coli ATCC 8739 assessed as microbial growth inhibition in presence of Vancomycin by agar dilution method
Acinetobacter baumannii [22] = assay: Antibacterial activity against Acinetobacter baumannii R4942 assessed as reduction in bacterial growth in presence of teicoplanin by broth microdilution method
Acinetobacter baumannii [23] = assay: Antimicrobial activity against Acinetobacter baumannii ATCC 17978 assessed as microbial growth inhibition
Escherichia coli [24] = assay: Antibacterial activity against Escherichia coli ATCC 25922 assessed as bacterial growth inhibition measured after 48 hrs in presence of vancomycin
Klebsiella pneumoniae = assay: Antibacterial activity against Klebsiella pneumoniae R3949 assessed as reduction in bacterial growth in presence of Meropenem by broth microdilution method

## CCCCCCCCCCCCCCCCC[C@H]1CN(C)[C@@H]([C@H](O[C@@H]2O[C@H](CN)[C@@H](O)[C@H]2O)[C@H]2O[C@@H](n3ccc(=O)[nH]c3=O)[C@H](O)[C@@H]2O)C(=O)N(C)[C@@H]1C(=O)O
Enterococcus faecium [1]
  MIC: 8 µg/mL (≈ 10 µM)
Enterococcus faecalis [2]
  MIC: 8 µg/mL (≈ 10 µM)

## CN[C@H](CC(C)C)C(=O)N[C@H]1C(=O)N[C@@H](CC(N)=O)C(=O)N[C@H]2C(=O)N[C@H]3C(=O)N[C@H](C(=O)N[C@H](C(=O)O)c4cc(O)cc(O)c4-c4cc3ccc4O)[C@H](O)c3ccc(c(Cl)c3)Oc3cc2cc(c3O[C@@H]2O[C@H](CO)[C@@H](O)[C@H](O)[C@H]2O[C@H]2C[C@](C)(N)[C@H](O)[C@H](C)O2)Oc2ccc(cc2Cl)[C@H]1O [VANCOMYCIN]
Staphylococcus aureus
  MBEC: >512 µg/mL
Escherichia coli [3]
  MIC: 6.25 µg/mL
Pseudomonas aeruginosa [4]
  fractional inhibitory concentration index (FICI): <0.5
Escherichia coli [5]
  MIC: 3.5 µg/mL
Escherichia coli [6]
  MIC: 0.2 µg/mL
Enterococcus faecalis [7]
  MIC: 31 µg/mL (≈ 21.4 µM)
Escherichia coli [8]
  MIC: 12.5 µg/mL
Pseudomonas aeruginosa [9]
  MIC: 0.5 µg/mL (≈ 0.345 µM)
Enterococcus faecalis [10]
  MBEC: >512 µg/mL

## NC[C@H]1O[C@H](O[C@H]2[C@H](O)[C@@H](O[C@H]3O[C@H](CO)[C@@H](O)[C@H](N)[C@H]3O)[C@H](N)C[C@@H]2N)[C@H](N)C[C@@H]1O [TOBRAMYCIN]
Pseudomonas aeruginosa [11]
  MIC: 0.7 µM

## H-ILRWPWWPWRRK-NH2 [OMIGANAN]
Enterococcus faecium [12]
  MIC: 2 µg/mL

## C[C@@H](O)[C@H]1C(=O)N2C(C(=O)O)=C(S[C@@H]3CN[C@H](C(=O)N(C)C)C3)[C@H](C)[C@H]12 [MEROPENEM]
Pseudomonas aeruginosa [13]
  MIC: < 1 µg/mL

## CCCCCCCCCCCCCC[N+](C)(C)CCCNC(=O)[C@H]1NC(=O)[C@H]2NC(=O)[C@H](NC(=O)[C@@H]3NC(=O)[C@H](CC(N)=O)NC(=O)[C@H](NC(=O)[C@@H](CC(C)C)NC)[C@H](O)c4ccc(c(Cl)c4)Oc4cc3cc(c4O[C@@H]3O[C@H](CO)[C@@H](O)[C@H](O)[C@H]3O[C@H]3C[C@](C)(N)[C@H](O)[C@H](C)O3)Oc3ccc(cc3Cl)[C@H]2O)c2ccc(O)c(c2)-c2c(O)cc(O)cc21
Escherichia coli [14]
  MIC: 6.25 µg/mL
Enterococcus faecium [15]
  MIC: 1.2 µM
Pseudomonas aeruginosa [16]
  MIC: 6.1 µM
Enterobacter cloacae
  MIC: 12.5 µM
Acinetobacter baumannii [17]
  MIC: 3 µM
Pseudomonas aeruginosa [18]
  MIC: 0.5 µg/mL
Acinetobacter baumannii [19]
  MIC: < 1 µg/mL
Acinetobacter baumannii [20]
  MIC: 3 µM
Escherichia coli [21]
  MIC: 6 µg/mL
Acinetobacter baumannii [22]
  MIC: ≤ 2 µg/mL
Acinetobacter baumannii [23]
  MIC: ≤ 2 µg/mL
Escherichia coli [24]
  MIC: 12.5 µg/mL
Klebsiella pneumoniae
  MIC: 3.15 µg/mL
